Experimental data: patent US11266711B2, “Oxytocin compositions and methods of use” (Elgan Pharma Ltd, priority 2018, dated 2022)
Counter-ions that a name gives are not always drawn. Numbered stars: 1 amine (or outer) side, 2 acyl side, 3 side chain; on linkers, the order of the positions; unused ones are H or OH. Bridge positions count the residues as written; N and C are the ends. Peptide text beside a SMILES is read from it. X1 = O=C(CCC[*:2])[*:1]

Legend:
[1] = cited from earlier work
oxytocin receptor [2] = molecular target: T1, oxytocin receptor (Homo sapiens, UniProt P30559); conditions: cited from earlier work
T1 sequence (P30559 whole entry, species assumed): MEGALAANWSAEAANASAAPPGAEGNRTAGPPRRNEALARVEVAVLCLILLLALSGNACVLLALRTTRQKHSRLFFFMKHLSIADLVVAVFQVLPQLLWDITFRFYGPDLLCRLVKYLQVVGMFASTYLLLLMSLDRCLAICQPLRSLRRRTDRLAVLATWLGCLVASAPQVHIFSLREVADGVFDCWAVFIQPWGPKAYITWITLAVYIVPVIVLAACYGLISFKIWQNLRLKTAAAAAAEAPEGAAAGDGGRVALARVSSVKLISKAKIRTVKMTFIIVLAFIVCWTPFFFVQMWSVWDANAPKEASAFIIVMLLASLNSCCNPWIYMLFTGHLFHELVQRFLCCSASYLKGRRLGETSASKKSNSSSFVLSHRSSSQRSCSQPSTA

oxytocin receptor [3] = molecular target: T1, oxytocin receptor; conditions: cited from earlier work; remark: listed apart in the source
[4] = system: infants of mothers who took the drug during the first 42 days of pregnancy; conditions: mothers took the drug during the first 42 days of pregnancy; other drugs 4.6 per 100, no drugs 2.6 per 100; cited from earlier work
[5] = system: adolescent rats chronically exposed to fluoxetine prenatally; experiment: Locomotor activity, adolescent rats exposed to fluoxetine prenatally (Example 5); assay type: in vivo; conditions: 2 mg/kg s.c. daily, first 10 postnatal days; tested postnatal days 31-35; vs saline (data not shown)
[6] = system: adolescent rats chronically exposed to morphine prenatally; experiment: Light-Dark Box, adolescent rats exposed to morphine prenatally (Example 8); assay type: in vivo; conditions: 0.3 mg/kg s.c. daily, first 10 postnatal days; tested postnatal days 31-35; vs saline (FIG. 8a)
[7] = system: adolescent rats chronically exposed to fluoxetine prenatally; experiment: Passive Avoidance Test, adolescent rats exposed to fluoxetine prenatally (Example 5); assay type: in vivo; conditions: 2 mg/kg s.c. daily, first 10 postnatal days; tested postnatal days 31-35; vs saline (FIG. 5)
[8] = system: adolescent rats chronically exposed to diazepam prenatally; experiment: Light-Dark Box, adolescent rats exposed to diazepam prenatally (Example 12); conditions: 1 mg/kg and 2 mg/kg s.c., first 10 postnatal days; tested postnatal days 31-35; vs saline (FIG. 12a)
[9] = system: rat pups chronically exposed to morphine prenatally; experiment: Locomotor activity during withdrawal, rats exposed to morphine prenatally (Example 7); assay type: in vivo
[10] = system: rat pups chronically exposed to diazepam prenatally; conditions: 2 mg/kg s.c. daily, first 10 postnatal days
[11] = system: adolescent rats chronically exposed to morphine prenatally; experiment: Automated Three-Chamber Test, adolescent rats exposed to morphine prenatally (Example 9); assay type: in vivo; conditions: first 10 postnatal days, tested postnatal days 31-35
From the text: (§1) Briefly, the Three-Chamber Test assesses cognition in the form of social novelty and social memory; Social novelty occurs in three sessions within a three-chambered box with openings between the chambers. After habituation to the empty box, the test animal encounters a novel conspecific under one pencil cup and an empty pencil cup. The test animal then encounters the familiar conspecific and a second novel conspecific under the previously empty pencil cup; Animals that show intact social novelty behavior will show a preference to investigate the novel conspecific; Twenty-four hours later, social memory is tested by placing the test animal back in to the chamber with the two familiar conspecifics; Animals with intact social memory will spend an equal amount of time investigating the two familiar conspecifics. Duration of time spent investigating conspecifics is measured automatically using a SmartCage™.

[12] = system: adolescent rats chronically exposed to diazepam prenatally; experiment: Automated Three-Chamber Test, adolescent rats exposed to diazepam prenatally (Example 13); assay type: in vivo; conditions: first 10 postnatal days, tested postnatal days 31-35
From the text: as §1

[13] = system: rat pups chronically exposed to morphine prenatally; experiment: Naloxone-induced withdrawal in rat pups exposed to morphine prenatally (Example 1); assay type: in vivo, Sprague-Dawley rats
[14] = system: rat pups chronically exposed to diazepam prenatally; experiment: Locomotor activity during withdrawal, rats exposed to diazepam prenatally (Example 11)
Protocol: Briefly, locomotor activity is measured by placing an animal in to a small standardized test chamber for a five-minute period. Distance travelled, and time spent active is measured automatically using a SmartCage™.

[15] = system: rat pups chronically exposed to fluoxetine prenatally; experiment: Survival and body weight, rat pups exposed to fluoxetine prenatally (Example 4); assay type: in vivo, Sprague-Dawley rats; conditions: 2 mg/kg s.c. daily
[16] = system: rat pups chronically exposed to diazepam prenatally; experiment: Survival and body weight, three oxytocin doses, rat pups exposed to diazepam prenatally (Example 10); conditions: first 10 postnatal days
healthy rats = experiment: Survival and body weight during development in healthy rats (Example 14); assay type: in vivo, Sprague-Dawley rats; conditions: 0.3, 1 or 2 mg/kg daily, first 10 postnatal days; drug naive pups
[17] = system: rat pups chronically exposed to morphine prenatally; assay type: in vivo, Sprague-Dawley rats; conditions: 2 mg/kg s.c. daily, first 10 postnatal days; survival measured for 15 days; vs saline (FIG. 2a)
[18] = system: adolescent rats chronically exposed to diazepam prenatally; experiment: Passive Avoidance Test, adolescent rats exposed to diazepam prenatally (Example 12); conditions: all doses (0.3, 1, 2 mg/kg) s.c., first 10 postnatal days; tested postnatal days 31-35; vs saline (FIG. 12b)
From the text: Briefly, in the Passive Avoidance Test an animal learns to avoid an unpleasant stimulus by inhibiting locomotion and exploration; On the training day, rats are placed in a brightly lit compartment of a test chamber; The animal quickly moves in to an adjacent dark compartment of the test chamber and receives an unavoidable mild foot shock; Twenty-four hours later during the test phase, the animals are again placed in to the light compartment and the latency to re-enter the dark compartment is measured. Latency to enter a compartment is automatically measured using a SmartCage™.

[19] = system: adolescent rats chronically exposed to morphine prenatally; experiment: Passive Avoidance Test, adolescent rats exposed to morphine prenatally (Example 8); assay type: in vivo; conditions: 2 mg/kg s.c. daily, first 10 postnatal days; tested postnatal days 31-35; vs saline (FIG. 8b)
[20] = system: adolescent rats chronically exposed to fluoxetine prenatally; experiment: Light/Dark Box, adolescent rats exposed to fluoxetine prenatally (Example 5); assay type: in vivo; conditions: 2 mg/kg s.c. daily, first 10 postnatal days; tested postnatal days 31-35; vs saline (data not shown)
[21] = system: rat pups chronically exposed to morphine prenatally; assay type: in vivo, Sprague-Dawley rats; conditions: all three doses (0.3, 1, 2 mg/kg) s.c. daily, first 10 postnatal days; vs saline (FIG. 6a)
[22] = 1 or 2 mg/kg s.c. daily, vs saline (FIG. 7a)

Cc1nnc2n1-c1ccc(Cl)cc1C(c1ccccc1)=NC2 [Alprazolam]
half-life ([1]; in vivo): ten to 24

O=C1Nc2ccc(Cl)cc2C(c2ccccc2Cl)=NC1O (centres unmarked) [Lorazepam]
half-life in adults ([1]; adults): about 12 hours

CC[C@H](C)[C@@H]1NC(=O)[C@H](Cc2ccc(OC)cc2)NC(=O)CCCSC[C@@H](C(=O)N2CCC[C@H]2C(=O)N[C@@H](CC(C)C)C(=O)NCC(N)=O)NC(=O)[C@H](CC(N)=O)NC(=O)[C@H](CCC(N)=O)NC1=O [carbetocin, 1-Butanoic acid-2-(O-methyl-L-tyrosine)-1-carbaoxytocin] (Y(Me)IQNCPLG-NH2; linker N-5 via X1)
affinity of the oxytocin receptor, compared with oxytocin (oxytocin receptor [2]): equal affinity
biological effect relative to endogenous or exogenous oxytocin (oxytocin receptor [3]): ~50%

CNC1=Nc2ccc(Cl)cc2C(c2ccccc2)=[N+]([O-])C1 [chlordiazepoxide, Chlordiazepoxide hydrochloride]
severe congenital anomalies among infants [4]: 11.4 per 100

CC[C@H](C)[C@@H]1NC(=O)[C@H](Cc2ccc(O)cc2)NC(=O)[C@@H](N)CSSC[C@@H](C(=O)N2CCC[C@H]2C(=O)N[C@@H](CC(C)C)C(=O)NCC(N)=O)NC(=O)[C@H](CC(N)=O)NC(=O)[C@H](CCC(N)=O)NC1=O [oxytocin]
locomotor activity [5]: No meaningful differences
anxiety-like behavior (time in the light chamber) [6]: clear statistically significant decrease
learning and memory function (latency to enter chamber paired with foot shock) [7]: clear statistically significant improvement
anxiety-like behavior (time in the light chamber) [8]: clear statistically significant reduction
locomotor activity at postnatal day 30 ([9]; 0.3, 1 or 2 mg/kg s.c. daily, first 10 postnatal days, between treatment groups (FIG. 7b)): No meaningful differences
locomotor activity on postnatal day 6 [9, 22]: clear statistically significant increase
locomotor activity on postnatal days 3 or 9 [9, 22]: not on postnatal days 3 or 9
percentage survival rates ([10]; survival measured for 15 days, vs saline (FIG. 3a)): clear statistically significant improvement
body weight, various time points of the dosing period ([10]; vs saline (FIG. 3b)): clear statistically significant increase
body weight at postnatal day 31 ([10]; vs saline (FIG. 3c)): clear statistically significant decrease
social memory function (time investigating a familiar conspecific) ([11]; 2 mg/kg s.c. daily, vs saline (FIG. 9b)): statistical trend towards improved social memory function
social novelty behavior (time investigating a novel conspecific) ([11]; all doses (0.3, 1, 2 mg/kg) s.c. daily, vs saline (FIG. 9a)): trend towards increased social novelty behavior
social memory function (time investigating a familiar conspecific) ([12]; 2 mg/kg s.c. daily, vs saline (FIG. 13b)): statistical trend toward improved social memory function
social novelty behavior (time investigating a novel animal) ([12]; 1 and 2 mg/kg s.c. daily, vs saline (FIG. 13a)): clear statistically significant increase
locomotor activity ([13]; single dose 2 mg/kg s.c. after naloxone, postnatal day one, up to 30 minutes post-naloxone, vs saline (FIG. 1a)): clear statistically significant reduction
scores of rolling behavior ([13]; single dose 2 mg/kg s.c., up to 45 minutes, vs saline (FIG. 1b)): numerical reduction
scores of curling behavior ([13]; single dose 2 mg/kg s.c., up to 45 minutes, vs saline (FIG. 1c)): numerical reduction
percentage survival rates at postnatal day 10 ([13]; single dose 2 mg/kg s.c., vs saline (FIG. 1d)): improved percentage survival rates
locomotor activity on postnatal day 6 ([14]; 0.3 mg/kg and 2 mg/kg s.c. daily, vs saline (FIG. 11a)): clear statistically significant decrease
locomotor activity on postnatal day 30 ([14]; 2 mg/kg s.c. daily, first 10 postnatal days, vs saline (FIG. 11b)): clear statistically significant decrease
locomotor activity on postnatal day 9 ([14]; 2 mg/kg s.c. daily, vs saline (FIG. 11a)): clear statistically significant decrease
locomotor activity on postnatal days 3 and 6 ([14]; all three doses (0.3, 1, 2 mg/kg) s.c. daily, vs saline): clear statistically significant decrease
percentage survival rates ([15]; first 10 postnatal days, survival measured for 15 days, vs saline (FIG. 4a)): statistical trend towards improvement
body weight at postnatal day 36 ([15]; first 10 postnatal days, vs saline (FIG. 4c)): clear statistically significant reduction
body weights during the first 10 postnatal days ([15]; vs saline (FIG. 4b)): comparable
percentage survival rates for the first 30 postnatal days ([16]; 2 mg/kg s.c. daily, vs saline (FIG. 10a)): clear statistically significant improvement
body weight throughout the first 30 postnatal days ([16]; all three doses (0.3, 1, 2 mg/kg) s.c. daily, vs saline (FIG. 10b)): clear statistically significant decrease
survival for the first 30 postnatal days (healthy rats): survived for the first 30 postnatal days
percentage survival rates [17]: clear statistically significant improvement
learning and memory function (latency to enter chamber paired with foot shock) [18]: clear statistically significant improvement
learning and memory function (latency to enter chamber paired with foot shock) [19]: numerical improvement
anxiety-like behavior [20]: No meaningful differences
percentage survival rates for the first 30 postnatal days [21]: clear statistically significant improvement
